Measurements published in publication doi:10.1101/2023.12.04.569845, “Identification of 4-(6-((2-methoxyphenyl)amino)pyrazin-2-yl)benzoic acids as CSNK2A inhibitors with antiviral activity and improved selectivity over PIM3” (bioRxiv, 2023).
Read-outs that look alike come from different tables or passages of the source.

Columns and labels:
Test in all cases: biochemical
Parameters in all cases: Thermal shift (DSF, SYPRO Orange) Tm shift of recombinant kinase domains at 10 uM compound
AAK1 = AAK1 (Homo sapiens, UniProt Q2M2I8)
Sequence of AAK1 (Q2M2I8 whole entry): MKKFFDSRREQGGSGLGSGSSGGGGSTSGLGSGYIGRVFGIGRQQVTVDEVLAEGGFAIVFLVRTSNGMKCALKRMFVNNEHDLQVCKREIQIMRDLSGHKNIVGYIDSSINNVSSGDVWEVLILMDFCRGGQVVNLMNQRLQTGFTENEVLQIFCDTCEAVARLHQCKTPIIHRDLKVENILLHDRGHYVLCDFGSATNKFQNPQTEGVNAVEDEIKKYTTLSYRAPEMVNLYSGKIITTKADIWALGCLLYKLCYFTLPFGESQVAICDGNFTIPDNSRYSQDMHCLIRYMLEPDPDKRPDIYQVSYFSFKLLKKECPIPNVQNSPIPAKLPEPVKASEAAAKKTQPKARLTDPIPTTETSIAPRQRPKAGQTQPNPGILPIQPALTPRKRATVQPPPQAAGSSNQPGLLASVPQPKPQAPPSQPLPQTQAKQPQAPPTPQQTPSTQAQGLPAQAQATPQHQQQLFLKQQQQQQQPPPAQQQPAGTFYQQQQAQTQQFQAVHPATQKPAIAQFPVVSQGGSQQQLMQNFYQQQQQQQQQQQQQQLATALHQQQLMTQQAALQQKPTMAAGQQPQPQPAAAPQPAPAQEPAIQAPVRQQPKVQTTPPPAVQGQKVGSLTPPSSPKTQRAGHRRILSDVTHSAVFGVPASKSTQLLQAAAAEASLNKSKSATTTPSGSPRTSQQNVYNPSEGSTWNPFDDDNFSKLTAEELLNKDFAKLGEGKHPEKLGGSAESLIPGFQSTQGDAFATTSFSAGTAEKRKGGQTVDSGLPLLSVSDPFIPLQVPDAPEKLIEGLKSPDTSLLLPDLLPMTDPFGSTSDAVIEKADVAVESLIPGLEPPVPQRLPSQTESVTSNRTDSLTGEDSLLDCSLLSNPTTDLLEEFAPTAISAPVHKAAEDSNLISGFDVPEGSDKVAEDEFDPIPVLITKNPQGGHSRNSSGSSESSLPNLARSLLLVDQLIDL

DRAK2 = target: T1, DRAK2 (Homo sapiens, UniProt O94768)
T1 construct: gene STK17B
T1 sequence (O94768 1-372): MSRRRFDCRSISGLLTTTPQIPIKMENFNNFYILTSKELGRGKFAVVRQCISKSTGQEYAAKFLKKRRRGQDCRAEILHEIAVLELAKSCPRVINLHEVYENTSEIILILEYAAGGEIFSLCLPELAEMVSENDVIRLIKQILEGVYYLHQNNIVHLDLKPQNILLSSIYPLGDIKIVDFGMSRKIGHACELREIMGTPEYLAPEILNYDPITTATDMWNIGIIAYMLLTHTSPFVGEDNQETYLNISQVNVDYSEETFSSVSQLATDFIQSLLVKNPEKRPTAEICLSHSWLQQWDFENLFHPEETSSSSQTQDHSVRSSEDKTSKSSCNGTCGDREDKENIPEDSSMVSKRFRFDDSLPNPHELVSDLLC

PCTAIRE1 = target: T2, PCTAIRE1 (Homo sapiens, UniProt Q00536)
T2 construct: gene CDK16
T2 sequence (Q00536 whole entry): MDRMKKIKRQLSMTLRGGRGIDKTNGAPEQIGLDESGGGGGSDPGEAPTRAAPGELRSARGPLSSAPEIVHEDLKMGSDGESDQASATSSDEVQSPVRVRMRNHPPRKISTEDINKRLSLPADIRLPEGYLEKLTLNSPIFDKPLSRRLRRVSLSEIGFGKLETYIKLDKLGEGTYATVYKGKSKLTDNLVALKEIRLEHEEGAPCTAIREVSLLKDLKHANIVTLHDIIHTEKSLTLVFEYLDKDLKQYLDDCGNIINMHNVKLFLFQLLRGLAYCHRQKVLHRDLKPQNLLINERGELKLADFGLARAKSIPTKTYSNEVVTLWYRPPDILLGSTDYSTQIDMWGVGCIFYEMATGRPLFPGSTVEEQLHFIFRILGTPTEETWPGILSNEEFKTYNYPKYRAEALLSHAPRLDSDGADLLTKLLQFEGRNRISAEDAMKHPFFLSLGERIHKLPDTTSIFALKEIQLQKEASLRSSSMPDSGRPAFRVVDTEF

OSR1 = target: T3, OSR1 (Homo sapiens, UniProt O95747)
T3 construct: gene OXSR1
T3 sequence (O95747 whole entry): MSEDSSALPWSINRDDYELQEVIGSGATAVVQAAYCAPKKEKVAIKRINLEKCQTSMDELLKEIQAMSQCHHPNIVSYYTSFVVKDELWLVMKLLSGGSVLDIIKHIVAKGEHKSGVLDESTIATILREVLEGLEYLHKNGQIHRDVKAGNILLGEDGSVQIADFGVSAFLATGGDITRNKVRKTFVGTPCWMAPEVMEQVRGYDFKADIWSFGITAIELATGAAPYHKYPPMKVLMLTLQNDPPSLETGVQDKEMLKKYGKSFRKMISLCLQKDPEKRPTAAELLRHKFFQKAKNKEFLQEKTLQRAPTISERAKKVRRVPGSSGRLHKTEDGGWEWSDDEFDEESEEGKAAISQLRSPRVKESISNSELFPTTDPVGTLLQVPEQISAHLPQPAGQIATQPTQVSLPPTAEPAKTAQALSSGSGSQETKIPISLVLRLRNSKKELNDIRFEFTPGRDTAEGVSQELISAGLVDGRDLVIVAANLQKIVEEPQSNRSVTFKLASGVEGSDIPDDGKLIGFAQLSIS

PAK4 = PAK4 (Homo sapiens, UniProt O96013)
Sequence of PAK4 (O96013 whole entry): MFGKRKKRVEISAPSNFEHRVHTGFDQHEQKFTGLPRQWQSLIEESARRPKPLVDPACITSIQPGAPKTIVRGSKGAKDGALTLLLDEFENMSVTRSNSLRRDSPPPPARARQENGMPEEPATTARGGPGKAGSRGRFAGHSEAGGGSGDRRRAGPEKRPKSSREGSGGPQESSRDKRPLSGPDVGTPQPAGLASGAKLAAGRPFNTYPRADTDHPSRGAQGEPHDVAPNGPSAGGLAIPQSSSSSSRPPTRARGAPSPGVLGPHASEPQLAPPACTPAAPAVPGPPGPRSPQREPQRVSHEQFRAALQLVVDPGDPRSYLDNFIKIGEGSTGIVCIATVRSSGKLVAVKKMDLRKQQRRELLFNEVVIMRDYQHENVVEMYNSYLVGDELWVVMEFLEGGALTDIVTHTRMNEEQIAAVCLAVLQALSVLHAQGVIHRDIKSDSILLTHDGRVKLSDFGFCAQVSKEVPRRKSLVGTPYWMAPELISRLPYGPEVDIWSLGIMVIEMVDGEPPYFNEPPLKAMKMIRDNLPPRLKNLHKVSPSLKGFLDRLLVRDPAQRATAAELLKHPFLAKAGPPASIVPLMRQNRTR

PLK4 = target: T4, PLK4 (Homo sapiens, UniProt O00444)
T4 sequence (O00444 1-970): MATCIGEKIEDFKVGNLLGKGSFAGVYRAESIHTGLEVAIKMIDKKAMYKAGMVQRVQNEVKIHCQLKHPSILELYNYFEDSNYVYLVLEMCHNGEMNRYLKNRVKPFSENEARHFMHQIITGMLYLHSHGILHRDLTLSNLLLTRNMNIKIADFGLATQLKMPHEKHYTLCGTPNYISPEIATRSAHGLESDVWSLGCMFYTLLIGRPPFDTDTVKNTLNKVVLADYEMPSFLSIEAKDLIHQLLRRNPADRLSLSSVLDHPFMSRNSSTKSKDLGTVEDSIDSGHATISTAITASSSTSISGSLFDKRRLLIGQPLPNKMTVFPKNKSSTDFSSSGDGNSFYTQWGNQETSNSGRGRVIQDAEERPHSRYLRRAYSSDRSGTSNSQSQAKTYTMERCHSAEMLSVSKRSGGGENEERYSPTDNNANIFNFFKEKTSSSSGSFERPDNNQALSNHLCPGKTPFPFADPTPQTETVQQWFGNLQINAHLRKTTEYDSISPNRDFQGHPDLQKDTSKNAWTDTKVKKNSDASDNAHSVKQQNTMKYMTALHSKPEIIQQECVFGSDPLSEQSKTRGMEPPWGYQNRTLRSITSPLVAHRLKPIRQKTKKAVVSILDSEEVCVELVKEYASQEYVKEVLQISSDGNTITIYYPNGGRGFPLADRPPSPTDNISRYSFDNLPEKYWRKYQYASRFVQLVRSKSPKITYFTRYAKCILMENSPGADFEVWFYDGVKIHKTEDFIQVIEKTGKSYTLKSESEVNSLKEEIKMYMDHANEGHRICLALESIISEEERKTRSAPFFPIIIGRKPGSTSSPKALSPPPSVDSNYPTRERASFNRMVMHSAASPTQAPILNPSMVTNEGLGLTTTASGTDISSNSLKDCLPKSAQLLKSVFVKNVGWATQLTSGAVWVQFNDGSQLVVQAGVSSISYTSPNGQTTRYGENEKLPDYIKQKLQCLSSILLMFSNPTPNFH

Erk2 = target: T5, Erk2 (Homo sapiens, UniProt P28482)
T5 construct: gene MAPK1
T5 sequence (P28482 whole entry): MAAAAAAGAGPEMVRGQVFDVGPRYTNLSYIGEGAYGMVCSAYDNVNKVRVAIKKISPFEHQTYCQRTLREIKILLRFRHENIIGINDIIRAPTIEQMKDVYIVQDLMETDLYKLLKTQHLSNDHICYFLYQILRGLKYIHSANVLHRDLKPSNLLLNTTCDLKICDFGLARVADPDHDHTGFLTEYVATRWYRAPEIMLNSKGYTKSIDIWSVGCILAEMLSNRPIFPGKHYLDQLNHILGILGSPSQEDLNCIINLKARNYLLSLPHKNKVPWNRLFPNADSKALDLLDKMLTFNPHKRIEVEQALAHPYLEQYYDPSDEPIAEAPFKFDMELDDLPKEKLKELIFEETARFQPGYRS

MSK1_b = target: T6, MSK1_b (Homo sapiens, UniProt O75582)
T6 construct: gene RPS6KA5; second (C-terminal) kinase domain
T6 sequence (O75582 whole entry, the tested form may be a part): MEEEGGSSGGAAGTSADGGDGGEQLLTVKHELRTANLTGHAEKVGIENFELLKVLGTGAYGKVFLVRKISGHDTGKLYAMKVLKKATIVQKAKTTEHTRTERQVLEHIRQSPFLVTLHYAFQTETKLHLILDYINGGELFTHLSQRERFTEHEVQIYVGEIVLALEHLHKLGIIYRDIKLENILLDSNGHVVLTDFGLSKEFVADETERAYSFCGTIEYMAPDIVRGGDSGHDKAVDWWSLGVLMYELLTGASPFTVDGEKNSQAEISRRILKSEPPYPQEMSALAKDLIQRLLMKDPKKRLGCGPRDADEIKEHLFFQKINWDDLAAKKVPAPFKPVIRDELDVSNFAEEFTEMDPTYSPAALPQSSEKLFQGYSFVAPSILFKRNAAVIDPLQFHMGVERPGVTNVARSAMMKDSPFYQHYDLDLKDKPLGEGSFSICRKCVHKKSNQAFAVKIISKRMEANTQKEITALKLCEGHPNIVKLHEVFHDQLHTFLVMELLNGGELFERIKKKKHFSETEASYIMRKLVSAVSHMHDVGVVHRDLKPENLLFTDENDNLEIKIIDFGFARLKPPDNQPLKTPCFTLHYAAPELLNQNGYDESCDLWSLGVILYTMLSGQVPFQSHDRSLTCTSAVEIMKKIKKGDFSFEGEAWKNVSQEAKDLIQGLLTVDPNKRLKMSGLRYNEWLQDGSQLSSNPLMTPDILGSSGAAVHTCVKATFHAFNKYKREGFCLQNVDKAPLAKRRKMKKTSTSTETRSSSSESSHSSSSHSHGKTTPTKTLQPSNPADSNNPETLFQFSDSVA

MAP2K7 = target: T7, MAP2K7 (Homo sapiens, UniProt O14733)
T7 sequence (O14733 1-419): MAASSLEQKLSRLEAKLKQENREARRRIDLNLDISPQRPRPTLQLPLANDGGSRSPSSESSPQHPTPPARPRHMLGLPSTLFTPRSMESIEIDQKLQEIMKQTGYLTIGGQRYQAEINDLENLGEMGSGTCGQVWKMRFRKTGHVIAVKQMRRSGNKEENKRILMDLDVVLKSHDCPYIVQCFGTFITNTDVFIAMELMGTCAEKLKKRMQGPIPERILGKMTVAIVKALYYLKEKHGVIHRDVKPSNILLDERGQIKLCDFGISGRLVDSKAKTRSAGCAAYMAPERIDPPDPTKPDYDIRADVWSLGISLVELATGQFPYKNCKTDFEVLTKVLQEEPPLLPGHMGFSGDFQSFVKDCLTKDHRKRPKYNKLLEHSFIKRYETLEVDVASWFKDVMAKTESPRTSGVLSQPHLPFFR

Compound: CC(C)Oc1ccc2ccn(-c3cncc(-c4ccc(C(=O)O)cc4)n3)c2c1 [6c]
- ΔTm at 10 µM (AAK1; read-out: 6c): 6 °C
- ΔTm at 10 µM (DRAK2; read-out: 6c): 2 °C
- ΔTm at 10 µM (PCTAIRE1; read-out: 6c): 5 °C
- ΔTm at 10 µM (OSR1; read-out: 6c): -2 °C
- ΔTm at 10 µM (PAK4; read-out: 6c): 3 °C
- ΔTm at 10 µM (PLK4; read-out: 6c): 10 °C
- ΔTm at 10 µM (Erk2; read-out: 6c): 0 °C
- ΔTm at 10 µM (MSK1_b; read-out: 6c): 6 °C
- ΔTm at 10 µM (MAP2K7; read-out: 6c): 0 °C

Compound: COc1ccc(OC(C)C)cc1Nc1cncc(-c2ccc(C(=O)O)cc2)n1 [7c]
- ΔTm at 10 µM (AAK1; read-out: 7c): 5 °C
- ΔTm at 10 µM (DRAK2; read-out: 7c): 0 °C
- ΔTm at 10 µM (PCTAIRE1; read-out: 7c): 2 °C
- ΔTm at 10 µM (OSR1; read-out: 7c): 0 °C
- ΔTm at 10 µM (PAK4; read-out: 7c): 1 °C
- ΔTm at 10 µM (PLK4; read-out: 7c): 6 °C
- ΔTm at 10 µM (Erk2; read-out: 7c): 0 °C
- ΔTm at 10 µM (MSK1_b; read-out: 7c): 6 °C
- ΔTm at 10 µM (MAP2K7; read-out: 7c): -1 °C

Compound: CC(C)Nc1ccc2cnn(-c3cncc(-c4ccc(C(=O)O)cc4)n3)c2c1 [compound 2, 2]
- ΔTm at 10 µM (AAK1; read-out: 2): 7 °C
- ΔTm at 10 µM (DRAK2; read-out: 2): 3 °C
- ΔTm at 10 µM (PCTAIRE1; read-out: 2): 2 °C
- ΔTm at 10 µM (OSR1; read-out: 2): -1 °C
- ΔTm at 10 µM (PAK4; read-out: 2): 3 °C
- ΔTm at 10 µM (PLK4; read-out: 2): 11 °C
- ΔTm at 10 µM (Erk2; read-out: 2): 0 °C
- ΔTm at 10 µM (MSK1_b; read-out: 2): 11 °C
- ΔTm at 10 µM (MAP2K7; read-out: 2): 0 °C
